What follows are molecules tested on G401 cells (assay: G401 ELISA test). Conditions: Homo sapiens, G-401; G401 cells treated with compounds for 72 hours; ELISA detecting K27 and H3; read-out: G401_ELISA IC50.
Assay type: cell-based
Method: • Plate Reader: Envision (Perkinelmner); plate shaker: IKA MTS 2/4; plate Washer: BioTek microplate wisher 405 select; Cell counter: Counterstar (Ruiyu-biotech); Cell culture incubator: MCO-15AC (ThermoFisher); Pipette: BioHit Multichannel. Pipette: 0.2-10 μL, 10-300 μL, 50-1200 μL; Centrifuge: Thermo Centrifuge ST 40R; Pure water system: Millipore Milli-Q Reference system; Refrigerator: Haier −80 degree, −20 degree, and 4-degree refrigerators; cell cryopreservation box: Mr. Frosty™ Gradient Cooling Box Cat #5100-0001
• McCoys 5A (Modified) culture medium (ATCC); FBS (Gibco); 0.25% Trypsin/EDTA (Gibco); PBS (Hyclone); Penicillin/Streptomycin(100×) (Gibco); DMSO (Sigma); 384 cell culture plate (Corning); 384 detection plate (Greiner); 96 well plate (compound dilution) (Haimen, Qunchao); T75 Cell Culture Bottle (Corning)
G401 cells were seeded in a 384-well cell culture plate and incubated overnight at 37° C. in a 5% CO2 cell culture incubator, after which the cells were treated with compounds of different concentrations for 72 hours. The 384-well cell culture plate was taken out and upside down in a centrifuge to centrifugeat 300 rpm for 1 minute. After centrifugation, the 384-well cell culture plate was washed twice with PBS, added with lysis solution and lysed for 60 minutes. Then neutralization buffer was added for mixing and incubation was continued for 30 minutes. 20 ul (for detecting K27) and 10 ul (for detecting H3) of cell lysate were extracted from the 384-well cell culture plate and transferred to a 384 ELISA detection plate and incubate overnight at 4° C. The next day, the 384 ELISA plate was taken out and washed 5 times with TBST in a microplate washer. Then, the plate was added with a blocking solution and sealed at room temperature for 1 hour. The blocking solution was discarded and the primary antibody was added and then the plate was incubated at room temperature for 1 hour. After incubation, the plate was washed with TBST 5 times in a microplate washer, then added with secondary antibody and incubated at room temperature for 1 hour. After incubation, the plate was washed with TBST 5 times in a microplate washer, and finally added with color developer for color development. The plate was read with Envision plate reader. The obtained data was converted into inhibition rate using the following calculation method: % Inhibition rate=100−100*(compound absorbance−positive control absorbance)/(negative control absorbance−positive control absorbance), and then the inhibition rate data was subjected to curve fitting using the “logarithmic (inhibitor) and reaction-variable slope (four parameters)” model in GraphPad Prism 5 software.
The inhibition rate of the compound was calculated as follows: […]
The compounds of the present invention were tested according to the above experimental method, and some results were shown in Table 3. The test results were classified by A, B, and C, wherein A represents IC50≤0.1 uM; B represents 0.1 uM<IC50≤1 uM; C represents IC50>1 uM
COc1nccc2ccc(Nc3ccc(C(C)Nc4ncc(CC(=O)NC5COC5)cn4)cc3)nc12 (racemic) [PA039, 2-(2-((1-(4-((8-methoxy-1,7-naphthyridin-2-yl)amino)phenyl)ethyl)amino)pyrimidin-5-yl) acetic acid N-(oxetan-3-yl) acetamide] was tested, and the IC50 was 100 to 1000 nM. Work on COc1nccc2ccc(Nc3ccc(CNc4ncc(C(C)C(=O)NC5COC5)cn4)cc3)nc12 (racemic) [PA041, 2-[2-[[4-[(8-methoxy-1,7-naphthyridin-2-yl)amino]phenyl]methylamino]pyrimidin-5-yl]-N-(oxetan-3-yl) propanamide] yielded an IC50 of no more than 100 nM. Work on COc1nccc2ccc(Nc3ccc(CNc4ncc([C@H](C)C(=O)NC5COC5)cn4)cc3)nc12 (single isomer, unassigned) [PA042, 2-[2-[[4-[(8-methoxy-1,7-naphthyridin-2-yl)amino]phenyl]methylamino]pyrimidin-5-yl]-N-(oxetan-3-yl) propanamide] yielded an IC50 of no more than 100 nM. COc1nccc2ccc(Nc3ccc(CNc4ncc([C@@H](C)C(=O)NC5COC5)cn4)cc3)nc12 (single isomer, unassigned) [PA043, 2-[2-[[4-[(8-methoxy-1,7-naphthyridin-2-yl)amino]phenyl]methylamino]pyrimidin-5-yl]-N-(oxetan-3-yl) propanamide] showed an IC50 of 100 to 1000 nM. With COc1nccc2ccc(Nc3ccc([C@@H](C)Nc4ncc(CC(=O)NC5COC5)cn4)cc3)nc12 (single isomer, unassigned) [PA062, 2-(2-((1-(4-((8-methoxy-1,7-naphthyridin-2-yl)amino)phenyl)ethyl)amino)pyrimidin-5-yl) acetic acid N-(oxetan-3-yl) acetamide] the IC50 was 100 to 1000 nM. CC(C(=O)NC1COC1)c1cnc(N[C@@H](C)C23CCC(Nc4ccc5ccnc(Cl)c5n4)(CC2)CC3)nc1 (single isomer, unassigned) [PA166] showed an IC50 of no more than 100 nM. C[C@H](Nc1ncc(CNC2CS(=O)(=O)C2)cn1)c1ccc(Nc2ccc3ccnc(Cl)c3n2)c(F)c1 (single isomer, unassigned) [PA248] showed an IC50 greater than 1000 nM. For COc1nccc2ccc(Nc3ccc(CNc4ncc(CC(=O)NC5COC5)cn4)cc3)nc12 [PA001], the IC50 was no more than 100 nM. Molecule COc1nccc2ccc(Nc3ccc(CNc4ncc(CC(=O)OC(C)(C)C)cn4)cc3)nc12 [PA007] has an IC50 greater than 1000 nM. With O=C(Cc1cnc(NCc2ccc(Nc3ccc4ccnc(Cl)c4n3)cc2)nc1)NC1COC1 [PA010] the IC50 was 100 to 1000 nM. Molecule COc1nccc2ccc(Nc3ccc(CNc4ncc(CC(=O)NC5COC5)cn4)c(F)c3)nc12 [PA034] has an IC50 of no more than 100 nM. Work on COc1nccc2ccc(Nc3ccc(CNc4cnc(C(C)(C)C(=O)NC5COC5)cn4)cc3)nc12 [PA038] yielded an IC50 greater than 1000 nM. With CC(C(=O)NC1COC1)c1cnc(NCc2ccc(Nc3ccc4ccnc(Cl)c4n3)cc2)nc1 (centres unmarked) [PA044] the IC50 was 100 to 1000 nM. Work on O=C(Cc1cnc(NCC23CCC(Nc4ccc5ccnc(Cl)c5n4)(CC2)CC3)nc1)NC1COC1 [PA046, 2-[2-[[4-[(8-chloro-1,7-naphthyridin-2-yl)amino]-1-bicyclo[2.2.2]octyl]methylamino]pyrimidin-5-yl]-N-(oxetan-3-yl)acetamide] yielded an IC50 of no more than 100 nM. Work on O=C(Cc1cnc(NCc2ccc(Nc3ccc4ccncc4n3)cc2)nc1)NC1COC1 [PA048] yielded an IC50 greater than 1000 nM. For O=C(Cc1cnc(NCc2ccc(Nc3ccc4cccnc4n3)cc2)nc1)NC1COC1 [PA051], the IC50 was greater than 1000 nM. With C[C@H](C(=O)NC1COC1)c1cnc(NCc2ccc(Nc3ccc4ccnc(Cl)c4n3)cc2)nc1 [PA054] the IC50 was 100 to 1000 nM. For C[C@@H](C(=O)NC1COC1)c1cnc(NCc2ccc(Nc3ccc4ccnc(Cl)c4n3)cc2)nc1 [PA055], the IC50 was greater than 1000 nM. COc1nccc2ccc(Nc3ccc([C@H](C)Nc4ncc(CC(=O)NC5COC5)cn4)cc3)nc12 [PA061, 2-(2-((1-(4-((8-methoxy-1,7-naphthyridin-2-yl)amino)phenyl)ethyl)amino)pyrimidin-5-yl) acetic acid N-(oxetan-3-yl) acetamide] was tested, and the IC50 was no more than 100 nM. COc1nccc2ccc(Nc3ccc(CNc4ncc(CC(=O)NC5COC5)cn4)cc3)cc12 [PA066] gave an IC50 greater than 1000 nM. With CNc1nccc2ccc(Nc3ccc(CNc4ncc(CC(=O)NC5COC5)cn4)cc3)nc12 [PA068] the IC50 was 100 to 1000 nM. O=C(Cc1cnc(NCC23CC(Nc4ccc5ccnc(Cl)c5n4)(C2)C3)nc1)NC1COC1 [PA069] gave an IC50 greater than 1000 nM. For COc1nccc2ccc(Nc3ccc(CNc4ncc(CC(=O)NC5COC5)cn4)cn3)nc12 [PA070], the IC50 was greater than 1000 nM. In the case of COc1ccc2ccc(Nc3ccc(CNc4ncc(CC(=O)NC5COC5)cn4)cc3)nc2n1 [PA073], the IC50 is reported as greater than 1000 nM. For N#Cc1nccc2ccc(Nc3ccc(CNc4ncc(CC(=O)NC5COC5)cn4)cc3)nc12 [PA074], the IC50 was greater than 1000 nM. COc1nccc2ccc(NC34CCC(CNc5ncc(C(C)C(=O)NC6COC6)cn5)(CC3)CC4)nc12 (centres unmarked) [PA076] was tested, and the IC50 was no more than 100 nM. Work on COc1nccc2ccc(NC34CCC(CNc5ncc([C@@H](C)C(=O)NC6COC6)cn5)(CC3)CC4)nc12 [PA077] yielded an IC50 of no more than 100 nM. Work on COc1nccc2ccc(NC34CCC(CNc5ncc([C@H](C)C(=O)NC6COC6)cn5)(CC3)CC4)nc12 [PA078] yielded an IC50 of 100 to 1000 nM. COc1nccc2ccc(NC34CCC(CNc5ncc(CC(=O)NC6COC6)cn5)(CC3)CC4)nc12 [PA079] gave an IC50 of no more than 100 nM. Work on COc1nccc2ccc(Nc3ccc(CNc4ccc(CC(=O)NC5COC5)cc4)cc3)nc12 [PA081] yielded an IC50 of 100 to 1000 nM. In the case of COc1nccc2ccc(Nc3ccc(CNc4ccc(CC(=O)NC5COC5)nc4)cc3)nc12 [PA082], the IC50 is reported as greater than 1000 nM. COc1nccc2ccc(Nc3ccc(CNc4ncc(CC(=O)NCCO)cn4)cc3)nc12 [PA151] was tested, and the IC50 was greater than 1000 nM. COCCNC(=O)Cc1cnc(NCc2ccc(Nc3ccc4ccnc(OC)c4n3)cc2)nc1 [PA152] showed an IC50 of 100 to 1000 nM. COc1nccc2ccc(Nc3ccc(CNc4ncc(CC(=O)NC5COC5)cn4)cc3F)nc12 [PA153] showed an IC50 of no more than 100 nM. With COc1nccc2ccc(Nc3ccc(CNc4ncc(CNC5COC5)cn4)cc3)nc12 [PA154] the IC50 was 100 to 1000 nM. CNC(=O)C(NC1CS(=O)(=O)C1)c1cnc(N[C@@H](C)C23CCC(Nc4ccc5ccnc(Cl)c5n4)(CC2)CC3)nc1 (some centres unmarked) [PA162] showed an IC50 of no more than 100 nM. COc1nccc2ccc(Nc3ccc([C@H](C)Nc4ncc(C(C)NC5CS(=O)(=O)C5)cn4)cc3F)nc12 (some centres unmarked) [PA163] showed an IC50 of no more than 100 nM. In the case of C[C@H](Nc1ncc(C=CC2CS(=O)(=O)C2)cn1)C12CCC(Nc3ccc4ccnc(Cl)c4n3)(CC1)CC2 [PA164], the IC50 is reported as no more than 100 nM. C[C@H](Nc1ncc(CNC2CS(=O)(=O)C2)cn1)C12CCC(Nc3ccc4ccnc(Cl)c4n3)(CC1)CC2 [PA165] showed an IC50 of no more than 100 nM. Work on Cc1ccc2ccc(Nc3ccc([C@H](C)Nc4ncc(CNC5CS(=O)(=O)C5)cn4)cc3F)nc2c1Cl [PA167, (S)-3-(2-(1-(4-(8-chloro-7-methylquinolin-2-amino)-3-fluorophenyl)ethylamino)pyrimidin-5-ylmethylamino)thietan-1,1-dione] yielded an IC50 of no more than 100 nM. With COc1nccc2ccc(NC34CCC([C@H](C)Nc5ncc(C(C)C(=O)NC6COC6)cn5)(CC3)CC4)nc12 (some centres unmarked) [PA168] the IC50 was no more than 100 nM. For CC(C(=O)NC1COC1)c1cnc(N[C@@H](C)C23CCC(Nc4ccc5ccnc(Cl)c5n4)(CC2)CC3)nc1 (stereo partly drawn) [PA169, 2-(2-(((S)-1-(4-((8-chloro-1,7-naphthyridin-2-yl)amino)bicyclo[2.2.2]octan-1-yl)ethyl)amino)pyrimidin-5-yl)-N-(oxetan-3-yl)propanamide], the IC50 was no more than 100 nM. With C[C@H](Nc1ncc(CNCCC#N)cn1)C12CCC(Nc3ccc4ccnc(Cl)c4n3)(CC1)CC2 [PA170] the IC50 was no more than 100 nM. CC(Nc1ncc(CC(=O)N(CCC#N)C2COC2)cn1)C12CCC(Nc3ccc4ccnc(Cl)c4n3)(CC1)CC2 (centres unmarked) [PA171] showed an IC50 of no more than 100 nM. With COc1nccc2ccc(Nc3ccc([C@H](C)Nc4ncc(CNC5CS(=O)(=O)C5)cn4)cc3F)nc12 [PA172] the IC50 was no more than 100 nM. For COc1nccc2ccc(Nc3ccc([C@H](C)Nc4ncc(CN5CC(C#N)C5)cn4)cc3F)nc12 [PA173], the IC50 was no more than 100 nM. For C[C@H](Nc1ncc(C(O)C(=O)NC2COC2)cn1)C12CCC(Nc3ccc4ccnc(Cl)c4n3)(CC1)CC2 (some centres unmarked) [PA174], the IC50 was no more than 100 nM. COc1nccc2ccc(Nc3ccc([C@H](C)Nc4ncc(CNC5C[S+]([O-])C5)cn4)cc3F)nc12 (some centres unmarked) [PA175] showed an IC50 of no more than 100 nM. Work on C[C@H](Nc1ncc(CC(=O)NC2COC2)cn1)C12CCC(Nc3ccc4ccnc(Cl)c4n3)(CC1)CC2 [PA176] yielded an IC50 of no more than 100 nM. In the case of CC(C(=O)N(CCC#N)C1COC1)c1cnc(N[C@@H](C)C23CCC(Nc4ccc5ccnc(Cl)c5n4)(CC2)CC3)nc1 (some centres unmarked) [PA177], the IC50 is reported as no more than 100 nM.
